Square brackets hold non-standard residues; d marks the D form. Peptide text beside a SMILES is read from it.
Assays:
SRIF receptors = target: T1, SRIF receptors (Rattus norvegicus, UniProt P30680); test: Yeast bioassay for SRIF antagonist activity (zone of growth inhibition of LY364 cells growing in response to SRIF); format: cell-based; conditions: 10 µL of 5 mg/mL on filter disk, S-14 10 nM
T1 construct: expressed in transfected cells; host or cells: Saccharomyces cerevisiae strain LY364
Experimental: Agar plates containing LY364 cells that are growing in the presence of added SRIF are the basis for a sensitive SRIF antagonist assay, whereby zones of growth inhibition result from the addition of SRIF antagonists to the surface of the agar plate (see L.A. Price, et al., Molecular and Cellular Biology, 15, 6188-6195, 1995, incorporated herein by reference).
In this assay, LY364 cells are grown overnight in 2 mL of synthetic complete(SC) medium (3.4 g/L YNB without amino acids and ammonium sulfate, 10 g/L ammonium sulfate and 1.4 g/L CSM-ura-trp) with glucose (2%) and without uracil and tryptophan. These cells are washed and cultured for 4 to 8 hours in 5 mL of SC medium with lactate (3%) and without uracil and tryptophan, and finally grown overnight in 5 mL of SC medium with galactose (2%) and without uracil and tryptophan. Molten (50° C) SC agar medium with galactose (2%) and without uracil, tryptophan and histidine is adjusted to pH 6.8 with KOH, mixed with 2 x 10^4 cells/mL and SRIF (S-14, 10 nM) and poured into square (20 x 20 cm) petri dishes. Sterile filter disks are placed on the surface of the agar, and saturated with 10 µL of water or DMSO containing 5 mg/mL test peptides. After three days, the plates display a uniform cloudy background of […] cells growing in response to the added SRIF. […] This zone is quantified by measuring its diameter (mm), which varies according to the potency of the SRIF antagonist. Those peptides or mixtures of peptides displaying the largest zones of inhibition are further characterized.
Values are compared among samples in the same experiment, as the degree of yeast growth varies somewhat from assay to assay. For the first five sample types, in which progressively less complex mixtures of peptides are found, this assay is the primary determining factor in choosing which samples form the basis of subsequent syntheses.
Plates are read after 3 days. Samples shown in Table I in bold type are chosen for further synthesis. In Table I, all amino acids are D-amino acids and dashes represent undefined amino acid residues.

[1] = tested on: serum growth hormone (GH) levels; test: In vivo serum growth hormone levels in anaesthetized rats (radioimmunoassay); design: species or system Male Sprague-Dawley rats; conditions: for SGH: i.v., BIM 23014C 10 µg at 60 min
Experimental: (§1) Evaluation in anaesthetized rats. Male Sprague-Dawley rats are anaesthetized with Sagatal and fitted so as to allow efficient intravenous treatment with control and test compounds as well as frequent blood sampling. Blood samples are tested for growth hormone (GH) levels by radioimmunoassay. Thirty minutes after the initiation of blood sampling, rats are given 5 µg, 25 µg or 50 µg of peptide 1.
(§2) Peptide 1 is tested in combination with growth hormone releasing factor (GRF), to investigate whether said peptide may be mimicking the action of GRF. Anaesthetized rats are given GRF (1 µg) alone and in combination with peptide 1 (50 µg). […]

Male Sprague-Dawley rats = test: Serum growth hormone levels in anaesthetized rats after intravenous treatment (radioimmunoassay); format: in vivo; conditions: for SGH: GRF 1 µg + Peptide 1 50 µg at 30 min
Experimental: as §1, §2

SSTR2 = SSTR2 (Rattus norvegicus, UniProt P30680); test: Competitive binding of 125I labeled S-14 to membranes of cells expressing transfected SSTR2 (SPA); design: expressed in transfected cells
Experimental: Membrane preparation. Tissue culture cell lines expressing transfected cDNA clones of SSTR2 and SSTR5 are used as a source of plasma membranes which specifically bind ^125I labeled S-14 (Amersham, Arlington Heights, IL). Cells are removed from culture dishes by incubation at 4°C for 5 minutes in PBS containing 1 mM EDTA, spun down (2,000 rpm, 5') and resuspended in 15 mL homogenization buffer (1 mM sodium bicarbonate pH 7.2, 1 mM EDTA, 1 mM EGTA and the following protease inhibitors: leupeptin and aprotenin at 5 µg/mL and benzamidine and bacitracin at 100 µg/mL). Cells are given 20 strokes with a Dounce homogenizer on ice and spun at 2000 rpm for 10 minutes. Membranes are isolated from the supernatant by centrifugation at 17,000 rpm for 30 minutes. The membrane pellet is washed once in 15 mL homogenization buffer and once in storage buffer (25 mM Tris pH 7.4 containing protease inhibitors). […] The membrane pellet is resuspended in storage buffer, measured for protein concentration (BioRad, CA) and stored at -80°C.
Binding assay. […] Bound radioligand is determined by counting in a Microbeta Liquid Scintillation counter (Wallac, Gaithersburg, MD). Binding data is plotted and IC50 and Ki values are calculated for test compounds using Prism software (Graphpad Software Inc., San Diego, CA) and are shown in Table V. Binding is expressed as Ki, µM.

T1 sequence (P30680 whole entry): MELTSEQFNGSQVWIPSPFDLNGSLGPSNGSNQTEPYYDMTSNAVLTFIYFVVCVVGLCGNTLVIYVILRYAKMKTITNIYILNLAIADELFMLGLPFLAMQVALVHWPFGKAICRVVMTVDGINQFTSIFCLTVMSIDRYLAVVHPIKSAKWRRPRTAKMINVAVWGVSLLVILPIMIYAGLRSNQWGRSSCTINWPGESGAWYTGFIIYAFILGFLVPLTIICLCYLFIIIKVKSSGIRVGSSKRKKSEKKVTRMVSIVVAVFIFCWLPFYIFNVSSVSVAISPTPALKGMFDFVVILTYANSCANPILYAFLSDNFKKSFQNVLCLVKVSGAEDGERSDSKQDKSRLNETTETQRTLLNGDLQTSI
Chain of SSTR2 (P30680 whole entry): as above

CC[C@@H](C)[C@@H](NC(=O)[C@@H](Cc1ccccc1)NC(=O)[C@@H](Cc1c[nH]cn1)NC(C)=O)C(=O)N[C@H](CCCNC(=N)N)C(=O)N[C@H](Cc1c[nH]c2ccccc12)C(=O)N[C@H](Cc1ccccc1)C(N)=O [Peptide 1, Ac-D-His-D-Phe-D-Ile-D-Arg-D-Trp-D-Phe-NH2] (Ac-[dH][dF][dI][dR][dW][dF]-NH2)
Yeast Assay (mm) (SRIF receptors; Table III, diameter of zone of growth inhibition): 20 mm | Inhibition Zone (mm) (SRIF receptors; sample type 4th iteration, read after 3 days, compare only within same experiment): 18 mm | effect upon GH levels ([1]; 5 µg, 25 µg or 50 µg of peptide 1 thirty minutes after initiation of blood sampling): dose related effect upon GH levels | serum GH levels after first dose ([1]; highest dose (50 µg) of peptide 1 at 30 min): significant increase in serum GH levels | SGH ([1]; Peptide 1 5 µg at 30 and 90 min, time 0 min (before dosing)): 17.0 ng/mL | SGH ([1]; Peptide 1 5 µg at 30 and 90 min, time 15 min (before dosing)): 13.6 ng/mL | SGH ([1]; Peptide 1 5 µg at 30 and 90 min, time 30 min (time of first dose)): 12.2 ng/mL | SGH ([1]; Peptide 1 5 µg at 30 and 90 min, time 35 min): 17.5 ng/mL | SGH ([1]; Peptide 1 5 µg at 30 and 90 min, time 40 min): 14.9 ng/mL | SGH ([1]; Peptide 1 5 µg at 30 and 90 min, time 45 min): 15.7 ng/mL | SGH ([1]; Peptide 1 5 µg at 30 and 90 min, time 60 min (time of BIM dose)): 11.4 ng/mL | SGH ([1]; Peptide 1 5 µg at 30 and 90 min, time 75 min): 7.0 ng/mL | SGH ([1]; Peptide 1 5 µg at 30 and 90 min, time 90 min (time of second dose)): 2.4 ng/mL | SGH ([1]; Peptide 1 5 µg at 30 and 90 min, time 95 min): 3.1 ng/mL | SGH ([1]; Peptide 1 5 µg at 30 and 90 min, time 100 min): 1.7 ng/mL | SGH ([1]; Peptide 1 5 µg at 30 and 90 min, time 105 min): 1.7 ng/mL | SGH ([1]; Peptide 1 5 µg at 30 and 90 min, time 135 min): 1.1 ng/mL | SGH ([1]; Peptide 1 25 µg at 30 and 90 min, time 0 min (before dosing)): 19.2 ng/mL | SGH ([1]; Peptide 1 25 µg at 30 and 90 min, time 15 min (before dosing)): 17.3 ng/mL | SGH ([1]; Peptide 1 25 µg at 30 and 90 min, time 30 min (time of first dose)): 16.6 ng/mL | SGH ([1]; Peptide 1 25 µg at 30 and 90 min, time 35 min): 18.4 ng/mL | SGH ([1]; Peptide 1 25 µg at 30 and 90 min, time 40 min): 17.5 ng/mL | SGH ([1]; Peptide 1 25 µg at 30 and 90 min, time 45 min): 14.0 ng/mL | SGH ([1]; Peptide 1 25 µg at 30 and 90 min, time 60 min (time of BIM dose)): 13.1 ng/mL | SGH ([1]; Peptide 1 25 µg at 30 and 90 min, time 75 min): 6.8 ng/mL | SGH ([1]; Peptide 1 25 µg at 30 and 90 min, time 90 min (time of second dose)): 5.1 ng/mL | SGH ([1]; Peptide 1 25 µg at 30 and 90 min, time 95 min): 11.4 ng/mL | SGH ([1]; Peptide 1 25 µg at 30 and 90 min, time 100 min): 10.5 ng/mL | SGH ([1]; Peptide 1 25 µg at 30 and 90 min, time 105 min): 7.9 ng/mL | SGH ([1]; Peptide 1 25 µg at 30 and 90 min, time 135 min): 5.2 ng/mL | SGH ([1]; Peptide 1 50 µg at 30 and 90 min, time 0 min (before dosing)): 22.7 ng/mL | SGH ([1]; Peptide 1 50 µg at 30 and 90 min, time 15 min (before dosing)): 17.0 ng/mL | SGH ([1]; Peptide 1 50 µg at 30 and 90 min, time 30 min (time of first dose)): 19.7 ng/mL | SGH ([1]; Peptide 1 50 µg at 30 and 90 min, time 35 min): 50.2 ng/mL | SGH ([1]; Peptide 1 50 µg at 30 and 90 min, time 40 min): 23.4 ng/mL | SGH ([1]; Peptide 1 50 µg at 30 and 90 min, time 45 min): 15.5 ng/mL | SGH ([1]; Peptide 1 50 µg at 30 and 90 min, time 60 min (time of BIM dose)): 17.1 ng/mL | SGH ([1]; Peptide 1 50 µg at 30 and 90 min, time 75 min): 3.5 ng/mL | SGH ([1]; Peptide 1 50 µg at 30 and 90 min, time 90 min (time of second dose)): 1.9 ng/mL | SGH ([1]; Peptide 1 50 µg at 30 and 90 min, time 95 min): 67.3 ng/mL | SGH ([1]; Peptide 1 50 µg at 30 and 90 min, time 100 min): 31.8 ng/mL | SGH ([1]; Peptide 1 50 µg at 30 and 90 min, time 105 min): 10.5 ng/mL | SGH ([1]; Peptide 1 50 µg at 30 and 90 min, time 135 min): 2.6 ng/mL | serum GH levels after second dose ([1]; second dose of peptide 1, highest dose (50 µg), after BIM 23014C): even greater increase in serum GH levels | SGH (Male Sprague-Dawley rats; time 35 min): 195.8 ng/mL | SGH (Male Sprague-Dawley rats; time 40 min): 176.2 ng/mL | SGH (Male Sprague-Dawley rats; time 45 min): 40.5 ng/mL | GH levels (Male Sprague-Dawley rats; GRF (1 µg) in combination with peptide 1 (50 µg), compared with GRF alone): rise faster and higher than with GRF alone | Ki (SSTR2): 140 nM

Reference: patent EP0863156A1, “Peptides useful as somatostatin antagonists” (American Cyanamid Company, priority 1997, dated 1998)
